Results on 14 compounds are retold here after article PMC11075139 (RSC Advances, 2024).

The conditions of data set [1]: for Prediction of CNS penetration: from PAMPA-BBB Pe; for BBB penetration in PAMPA assay: stated in words.
Data set [2] deals with CA-II. To be noted: read-out: Ki CA-II inhibition; cited from earlier work.
Data set [3] is described as follows: in vitro. The note with it: PAMPA.
Data set [4] concerns the target human CA-II (Homo sapiens, UniProt P00918). As to the kind of experiment: In vitro human CA-II inhibition assay. The data set is classed as biochemical.
The target in data set [5] is electric eel acetylcholinesterase (eeAChE) (Electrophorus electricus, UniProt O42275). As to the kind of experiment: Acetylcholinesterase inhibition assay. The data set is classed as biochemical. To be noted: for IC50: IC50 (μM) ± SEM eeAChE, mean ± SEM, n = 3; for SI (Selectivity index): Selectivity index = IC50 of BChE/IC50 of AChE.
Data set [6] deals with Aβ1–42 peptide (Homo sapiens, UniProt P05067). Put plainly: Self-mediated Aβ1–42 aggregation assay. The data set is classed as biochemical. The note with it: for inhibition of Aβ fibrils: ThT fluorescence, after 24 hours of equimolar treatment with Aβ1–42.
Data set [7] addresses eqBChE (Equus caballus, UniProt P81908). As to the kind of experiment: Butyrylcholinesterase inhibition assay. The data set is classed as biochemical.
The subject of data set [8] is SH-SY5Y cells. As to the kind of experiment: Cell viability/neurotoxicity assay. The class given is cell-based, human.
The target of data set [9] is AChE. To be noted: read-out: Ki AChE; non-competitive inhibitor; cited from earlier work.

Chain of Aβ1–42 peptide (P05067 672-713): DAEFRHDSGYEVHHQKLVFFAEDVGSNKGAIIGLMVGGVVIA
Chain of eqBChE (P81908 whole entry): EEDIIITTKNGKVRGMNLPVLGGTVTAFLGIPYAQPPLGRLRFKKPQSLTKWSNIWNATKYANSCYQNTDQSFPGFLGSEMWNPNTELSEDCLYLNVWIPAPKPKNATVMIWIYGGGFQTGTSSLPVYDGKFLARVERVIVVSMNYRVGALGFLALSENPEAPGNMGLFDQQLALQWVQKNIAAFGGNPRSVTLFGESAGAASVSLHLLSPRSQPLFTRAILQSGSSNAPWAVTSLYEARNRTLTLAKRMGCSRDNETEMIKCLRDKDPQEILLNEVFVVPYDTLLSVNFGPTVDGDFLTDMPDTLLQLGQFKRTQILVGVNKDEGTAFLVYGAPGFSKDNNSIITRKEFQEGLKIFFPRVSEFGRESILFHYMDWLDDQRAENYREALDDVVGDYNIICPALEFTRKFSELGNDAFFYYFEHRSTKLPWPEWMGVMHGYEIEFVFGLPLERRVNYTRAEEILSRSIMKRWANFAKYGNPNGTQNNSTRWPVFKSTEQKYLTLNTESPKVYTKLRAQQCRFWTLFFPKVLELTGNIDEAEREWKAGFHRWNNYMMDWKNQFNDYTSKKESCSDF
Chain of electric eel acetylcholinesterase (eeAChE) (O42275 24-633): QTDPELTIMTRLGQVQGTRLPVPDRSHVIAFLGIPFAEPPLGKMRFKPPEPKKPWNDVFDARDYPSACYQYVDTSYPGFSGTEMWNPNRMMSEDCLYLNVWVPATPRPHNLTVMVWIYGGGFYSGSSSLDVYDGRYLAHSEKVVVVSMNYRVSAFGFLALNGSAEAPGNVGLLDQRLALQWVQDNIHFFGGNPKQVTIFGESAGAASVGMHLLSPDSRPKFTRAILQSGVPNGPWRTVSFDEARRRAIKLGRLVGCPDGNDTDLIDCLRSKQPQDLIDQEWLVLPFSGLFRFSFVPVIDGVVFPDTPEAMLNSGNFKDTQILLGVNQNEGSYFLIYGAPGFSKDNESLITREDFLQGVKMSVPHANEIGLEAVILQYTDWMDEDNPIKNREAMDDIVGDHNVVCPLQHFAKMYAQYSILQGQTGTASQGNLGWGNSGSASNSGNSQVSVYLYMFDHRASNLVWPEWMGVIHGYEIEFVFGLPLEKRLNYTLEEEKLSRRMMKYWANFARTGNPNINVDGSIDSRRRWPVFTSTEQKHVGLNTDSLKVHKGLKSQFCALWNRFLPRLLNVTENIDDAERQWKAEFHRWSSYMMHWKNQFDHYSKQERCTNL

As for `Cc1nnc2n1-c1ccc(Cl)cc1C(c1ccccc1)=NC2` [Alprazolam, reference compound], in data set [1], the “Prediction of CNS penetration” value was “High (‘CNS+’ (prediction of high BBB permeation); Pe (10^−6 cm s^−1) > 4.39)”.
`C[C@]12CC[C@@H]3c4ccc(O)cc4CC[C@H]3[C@@H]1CC[C@H]2O` [Compound 4, α-estradiol]: in [2], the Ki was 40.4 µM.
Regarding `C[C@H](CCC(=O)O)[C@H]1CC[C@H]2[C@@H]3CC[C@@H]4C[C@H](O)CC[C@]4(C)[C@H]3C[C@H](O)[C@]12C` [Compound 5, deoxycholic acid], in data set [2], the Ki was 51 µM.
Take `CC(=O)C1CC[C@H]2[C@@H]3CC=C4CC(N)CC[C@]4(C)[C@H]3CC[C@]12C` (stereo partly drawn) [Compound 12, 1-((8S,9S,10R,13S,14S)-3-amino-10,13-dimethyl-2,3,4,7,8,9,10,11,12,13,14,15,16,17-tetradecahydro-1H-cyclopenta[a]phenanthren-17-yl)ethan-1-one]: the Papp in [3] was determined as 19.6 ×10⁻⁶ cm/s. Also, the concentration for half-maximal inhibition (IC50) in data set [4] came to 73.2 ± 1.14 µM. The same compound registered a concentration for half-maximal inhibition (IC50) in [5] of 67.7 ± 1.09 µM. For the same compound, in data set [1], the “Prediction of CNS penetration” value was “High (‘CNS+’ (prediction of high BBB permeation); Pe (10^−6 cm s^−1) > 4.39)” and the “BBB penetration in PAMPA assay” value is reported as “high BBB penetration”.
With `CC(=O)C1CC[C@H]2[C@@H]3CC=C4CC(NC(=S)Nc5ccc(S(N)(=O)=O)cc5)CC[C@]4(C)[C@H]3CC[C@]12C` (stereo partly drawn) [Compound 15, 4-(3-((8S,9S,10R,13S,14S)-17-Acetyl-10,13-dimethyl-2,3,4,7,8,9,10,11,12,13,14,15,16,17-tetradecahydro-1H-cyclopenta[a]phenanthren-3yl)thioureido)benzenesulfonamide], the IC50 in [6] is 9.25 ± 0.17 µM; in data set [7] it was 63 ± 1.23 µM; in data set [4], 48.9 ± 1.37 µM; in data set [5] it was 13 ± 0.18 µM. In addition, the “inhibition of Aβ fibrils” value in data set [6] was “approximately 60%”. Besides, in [8] (Homo sapiens, SH-SY5Y, read-out: cell viability), the viability at 5 µM was roughly 75%. In data set [5], the “SI (Selectivity index)” value came to 4.8.
On to `C[C@]12CCC(NC(=S)Nc3ccc(S(N)(=O)=O)cc3)CC1=CC[C@@H]1[C@@H]2CC[C@]2(C)C(C(=O)CNCCc3ccccc3)CC[C@@H]12` (stereo partly drawn) [Compound 24, 4-(3-((8S,9S,10R,13S,14S)-10,13-Dimethyl-17-(phenethylglycyl)-2,3,4,7,8,9,10,11,12,13,14,15,16,17-tetradeca-hydro-1H-cyclopenta[a]phenanthren-3-yl)thioureido)benzenesulfonamide], for which the IC50 in [6] was 29.6 ± 1.21 µM; in [7], 12.8 ± 0.45 µM; in data set [4], 5.44 ± 0.14 µM; in [5] it was 1.61 ± 0.1 µM. In addition, the “SI (Selectivity index)” value in data set [5] was 8.0.
With `C[C@]12CCC(NC(=S)Nc3ccc(S(N)(=O)=O)cc3)CC1=CC[C@@H]1[C@@H]2CC[C@]2(C)C(C(=O)CNCc3ccccc3)CC[C@@H]12` (stereo partly drawn) [Compound 25, 4-(3-((8S,9S,10R,13S,14S)-17-(Benzylglycyl)-10,13-di-methyl-2,3,4,7,8,9,10,11,12,13,14,15,16,17-tetradeca-hydro-1H-cyclopenta[a]phenanthren-3-yl)thioureido)benzenesulfonamide], the half-inhibitory concentration (IC50) in data set [6] stood at 12.8 ± 0.15 µM; in data set [7] it was 11.27 ± 0.11 µM; in data set [4] it was 1.02 ± 0.01 µM; in data set [5], 0.98 ± 0.1 µM. In data set [5], the “SI (Selectivity index)” value is given as 11.5.
The compound `C[C@]12CCC(NC(=S)Nc3ccc(S(N)(=O)=O)cc3)CC1=CC[C@@H]1[C@@H]2CC[C@]2(C)C(C(=O)CN3c4ccccc4Sc4ccccc43)CC[C@@H]12` (stereo partly drawn) [Compound 27, 4-(3-((8S,9S,10R,13S,14S)-17-(2-(10H-Phenothiazin-10-yl)acetyl)-10,13-dimethyl-2,3,4,7,8,9,10,11,12,13,14,15,16,17-tetradecahydro-1H-cyclopenta[a]phenanthren-3-yl)thioureido)benzenesulfonamide] came in with an apparent permeability (Papp) in [3] of 18.1 ×10⁻⁶ cm/s. For the same compound, the IC50 is 5.78 ± 0.07 µM in data set [6], 15.01 ± 0.03 µM in data set [7], 5.18 ± 0.12 µM in data set [4] and 0.094 ± 0.002 µM in data set [5]. Besides, the “inhibition of Aβ fibrils” value in data set [6] was 85%. The “protection of SH-SY5Y cells from the toxicity of the Aβ peptide” value in data set [8] (SH-SY5Y cells incubated with Aβ1–42) is on record as “effectively protected”. Moreover, in data set [8] (SH-SY5Y cells, 5 μM), the cytotoxicity entry was “completely non-cytotoxic”. Moreover, the “SI (Selectivity index)” value in [5] is 166.7. Also, the “Prediction of CNS penetration” value in data set [1] is “High (‘CNS+’ (prediction of high BBB permeation); Pe (10^−6 cm s^−1) > 4.39)”. Besides, the “BBB penetration in PAMPA assay” value in data set [1] was “BBB penetrants”.
On to `C[C@]12CCC(NC(=S)Nc3ccc(S(N)(=O)=O)cc3)CC1=CC[C@@H]1[C@@H]2CC[C@]2(C)C(C(=O)CNc3c4c(cc5ccccc35)CCCC4)CC[C@@H]12` (stereo partly drawn) [Compound 28, 4-(3-((8S,9S,10R,13S,14S)-10,13-Dimethyl-17-((1,2,3,4-tetrahydroanthracen-9-yl)glycyl)-2,3,4,7,8,9,10,11,12,13,14,15,16,17-tetradecahydro-1H-cyclopenta[a]phenanthren-3-yl)thioureido)benzenesulfonamide], for which the IC50 in data set [6] was determined as 26.37 ± 0.25 µM; in data set [7], 13.5 ± 0.09 µM; in [4], 31.8 ± 1.08 µM; in [5] it was 0.32 ± 0.01 µM. For the same compound, in data set [5], the “SI (Selectivity index)” value stood at 42.2.
As to `COc1cc(/C=C/C(=O)CC(=O)/C=C/c2ccc(O)c(OC)c2)ccc1O` [Curcumin, reference compound], the “inhibition of Aβ fibrils” value in [6] is listed as “approximately 60%”.
Consider `CCn1cc(C(=O)O)c(=O)c2cc(F)c(N3CCNC(C)C3)c(F)c21` (stereo not shown) [Lomefloxacin, reference compound], for which, in data set [1], the “Prediction of CNS penetration” value is “No (‘CNS−’ (prediction of low BBB permeation); Pe (10^−6 cm s^−1) < 1.78)”.
As for `C[C@]12CC[C@@H]3c4ccc(O)cc4CC[C@H]3[C@@H]1CCC2=O` [oestrone], the Ki in data set [2] is 50.8 µM.
For hyocholic acid [Compound 3], the Ki in data set [2] was 38.9 µM.
Regarding isosarcodine, the Ki in [9] is 21.8 µM.
